Reference: patent EP0340171A2, “Cyclodextrin complexes of 5-aminohexahydropyrimidine compounds” (WARNER-LAMBERT COMPANY, priority 1988, dated 1989)
“Also recorded” adds a separate entry of the source.

How the values were obtained:
[1] = solubility in deionized water; format: physicochemical
Method: When complexed with beta-cyclodextrin the solubility increases to about 10 mg hexetidine (contained in about 43 mg of complex) in about 10 ml of water -- without the addition of any alcohol or any surfactant. This is an increase from about 0 to about 0.1% w/v in solubility. The complex, 43 mg, was dissolved in 10 ml of deionized water at about 50°C using vortexing. The complex, assayed by UV to be a 1:1 complex of hexetidine: beta-cyclodextrin, contains 10 mg of hexetidine in the 43 mg of complex, and therefore, a 0.1% w/v solution of hexetidine was made. The solution of the 43 mg of complex in 10 ml of water was clear.

[2] = cited from earlier work

## CCCCC(CC)CN1CN(CC(CC)CCCC)CC(C)(N)C1 (centres unmarked) [hexetidine, 5-amino-1,3 bis(2-ethylhexyl)-5-methyl-hexahydropyrimidine]
[1]; 10 mg hexetidine, alone or as 43 mg of complex, in 10 ml of water
  solubility in water (in words): virtually insoluble in water; also recorded: did not dissolve
[1]; water, no ethanol and no surfactant
  solubility (hexetidine in aqueous solution): about 0 % w/v
[2]; about 9.5% v/v ethanol and about 0.7% v/v of surfactant (e.g., TWEEN 80)
  solution of hexetidine in known in the art compositions: ~0.1 % w/v
[2]; ethanol
  solubility in ethanol: soluble in ethanol
[2]; water
  solubility in water: practically insoluble in water
